Results: PMC10310857 (Nature Communications, 2023)

Target: Pst_13661 (Puccinia striiformis f. sp. tritici, UniProt A0A0L0V0Y3, T32S)
Type: biochemical
Settings: 100 µM

## O=C(NO)c1ccccc1 [Compound 1, benzohydroxamic acid]
  Inhibition Rate Pst_13661 Mean: 100.8%
